From PMC5856786, “A DHODH inhibitor increases p53 synthesis and enhances tumor cell killing by p53 degradation blockage” (Nature Communications, 2018)

What was measured:
HNDF cells = test: MTT growth/viability assay, HNDF; assay type: cell-based, human; conditions: 72 h
Description: MTT assays were performed in 96 well plates. After treatments, medium was replaced with 200 μL of MTT solution (3 mg mL^−1 MTT (Sigma #M2128) in PBS diluted 1:5 in growth medium). […] Volume of 200 μL DMSO per well were added and plates were read at 570 nm.

ARN8 cells [1] = test: BrdU/PI flow cytometry, cell cycle distribution; assay type: cell-based, human
Description: (§1) Cell cycle distribution analysis was performed on a Becton Dickinson FACScan flow cytometer or FACSCalibur (BD Biosciences) following staining with propidium iodide (PI) or dual labeling with BrdU and PI[36]. These assays were analyzed using CellQuest Pro (BD Biosciences).

RNA levels in ARN8 cells = test: RNASeq differential expression and gene ontology analysis; assay type: cell-based, human; conditions: ARN8, 5 h
Excerpt: Libraries were generated using the NEBNext Ultra Directional RNA Library Prep Kit for Illumina (New England Biolabs). Data are deposited at GEO with the accession code: GSE87577. […] Differential expression and gene ontology analysis are in Supplementary Data 1. Values correspond to the average of three biological repeats.

nucleoli in HCT116 cells = test: Immunofluorescence of nucleolin and p53; assay type: cell-based; conditions: Supplementary Fig. 4a
Description: Protein extracts were prepared in 1× LDS sample buffer (Invitrogen) with 100 mM DTT and separated and transferred using the Invitrogen western blotting system except in Supplementary Fig. 1c where the BioRad western blotting system was used. HRP-conjugated secondary antibodies were obtained from Dako (#P016102 and #P0211702) or Santa Cruz (#SC-2020). Immunofluorescence was performed by fixing cells in 4% paraformaldehyde freshly made in PBS for 10 min at 37 °C. Following fixation, cells were permeabilized in 0.15% Triton X-100 for 1–2 min at 37 °C followed by staining with the indicated antibodies. Images were taken using Olympus IX-71 microscope controlled by DeltaVision SoftWoRx. Image stacks were deconvolved, quick-projected and saved as tiff images to be processed using Adobe Photoshop. Antibodies to specific antigens are listed in Supplementary Table 8. All original films for blots in Fig. 1 are shown in Supplementary Figs. 9–12.
Cells were fixed in 4 % paraformaldehyde made in PBS followed by 10 min at 37 °C, permeabilization in 0.15 % Triton X-100 for 1-2 min at 37 °C, and staining with antibodies against nucleolin and p53. Images were taken using Olympus IX-71 microscope controlled by Delta Vision SoftWorx. Image stacks were deconvolved, quick-projected and saved as tiff images to be processed using Adobe PhotoShop. […]
was extracted and quantified. […]

ARN8 cells [2] = test: PI flow cytometry, sub-G1 cells, ARN8; assay type: cell-based, human; conditions: for DMSO control subtracted effect (cells in sub-G1) / sub-G1 cells: ARN8 72 h
Description: as §1

ARN8 cells [3] = test: SRB growth/viability assay, ARN8; assay type: cell-based, human; conditions: for effect on cell growth and p53 activation in presence of excess uridine: uridine 100 μM
Description: SRB assays measuring protein content were performed in 96-well plates as previously described.

[4] = test system: p53-induced mRNAs in ARN8 cells; test: q-RT-PCR of p53-induced mRNAs and p53 mRNA; assay type: cell-based, human
Description: Supplementary Figure 1. HZ compounds increase the levels of p53-induced mRNAs. a) p53-null H1299 cells were transfected with the RGCΔ FosLacZ reporter construct and levels of p53-dependent transcription were determined by CPRG assay following a 16 h exposure to HZ00. A vector expressing wild-type p53 was used as a positive control. The average of three […]
for 1 hour prior to treatment with 2 µM nutlin-3 for an additional 18 hours. Levels of p53-induced mRNAs and p53 mRNA were determined by q-RT-PCR. tbp was used as a control.
Values correspond to the average of three technical repeats with standard deviation used for error. RNA extraction and q-RT-PCR were performed as previously described - see supplementary information7. c) HCT116 p53 wild-type or p53 deficient cells were treated […]
supplementary information for cell line description8. d) ARN8 cells treated for 6 hours with HZ00 at indicated doses. Levels of p53 mRNA were determined by q-RT-PCR. […]

p53 in ARN8 cells = test: p53 synthesis assay (35S-Met-Cys pulse labeling, p53 immunoprecipitation); assay type: cell-based, human; conditions: 20 μM, within 6 h of treatment
Description: ARN8 cells were seeded at 2.5 × 10^6 cells per 10 cm dish. […] After 5.5 h, medium was substituted for Met- and Cys-deprived DMEM, supplemented with 5 μM nutlin-3, 0.5% FBS and 4 mM L-glutamine for 20 min in the presence of the corresponding compounds. ^35S-Met-Cys (50 μCi mL^−1) was added for 30 min. […] Samples were centrifuged at 16,000×g for 15 min at 4 °C. Volume of 30 µL of each supernatant was stored as input. The remaining supernatants were incubated with 5 µg anti-p53 DO-1 antibody and rotated overnight at 4 °C. Samples were transferred to Dynabeads Protein G (# D10004D, Life Technologies) and rotated for 30 min at RT. Samples were centrifuged briefly for 10 s and placed in front of a magnet. […] Pellets were resuspended in 3× LDS containing 100 mM DTT. Samples were separated by SDS-PAGE and the gels were incubated in enhancer solution (#6NE9741, PerkinElmer), dried and exposed to Carestream Kodak BioMax MR films at −80 °C.

[5] = test system: p53-dependent transcription in ARN8 human melanoma cells; test: p53-dependent transcription reporter (CPRG assay) in ARN8 cells; assay type: cell-based; conditions: cultured cells; authors' response in peer review file
Description: A 20,000 compound library was purchased from ChemBridge consisting of 10,000 from the DIVERSet and 10,000 from the CombiSet libraries. […] A total of 30,000 additional compounds from the ChemBridge DIVERSet that were previously screened in a T22 cell background[12] were re-screened in ARN8 cells at 5 µM. The ChemBridge codes for these compounds can be made available upon request. All chemical synthesis is detailed in Supplementary Information with NMR spectra and reaction schemes detailed in Supplementary Figs. 13–19.

Compound: O=C(NC1CCCc2c1cnn2-c1ccccc1F)c1ccccn1 (stereo not shown) [HZ00]
- inhibitory effect on proliferation, HNDF versus ARN8 (HNDF cells): lesser inhibitory effect on proliferation of HNDFs than on the growth of ARN8 cells
- accumulation of cells in S-phase (ARN8 cells [1]): accumulates ARN8 cells in S-phase
- log2FoldChange, drug vs DMSO, gene ENSG00000166436 (RNA levels in ARN8 cells; sheet Drug HZ00vsDMSO (20 μM)): -1.5997
- log2FoldChange, drug vs DMSO, gene ENSG00000197153 (RNA levels in ARN8 cells; sheet Drug HZ00vsDMSO (20 μM)): -1.477
- log2FoldChange, drug vs DMSO, gene ENSG00000204569 (RNA levels in ARN8 cells; sheet Drug HZ00vsDMSO (20 μM)): -2.244
- log2FoldChange, drug vs DMSO, gene ENSG00000221926 (RNA levels in ARN8 cells; sheet Drug HZ00vsDMSO (20 μM)): -1.707
- log2FoldChange, drug vs DMSO, gene ENSG00000277224 (RNA levels in ARN8 cells; sheet Drug HZ00vsDMSO (20 μM)): -1.408
- effect on nucleoli (nucleoli in HCT116 cells): nucleoli were disrupted
- synergy with nutlin-3 (cell kill) (ARN8 cells [2]; ARN8 in vitro, 72 h, additivity and Bliss independence models): synergistic cell kill
- effect on cell growth and p53 activation in presence of excess uridine (ARN8 cells [3]; ARN8): completely abolished
- mRNA of p53 target genes [4]: raised the mRNA of p53 target genes
- p53 synthesis (p53 in ARN8 cells): increase p53 synthesis

Compound: O=C(NC1CCCc2c1cnn2-c1ccccc1F)c1onc2c1CCCC2 (stereo not shown) [HZ05]
- accumulation of cells in S-phase (ARN8 cells [1]): accumulation of ARN8 cells in S-phase
- log2FoldChange, drug vs DMSO, gene ENSG00000121101 (RNA levels in ARN8 cells; sheet Drug HZ05vsDMSO (5 μM)): -2.498
- log2FoldChange, drug vs DMSO, gene ENSG00000197153 (RNA levels in ARN8 cells; sheet Drug HZ05vsDMSO (5 μM)): -1.694
- log2FoldChange, drug vs DMSO, gene ENSG00000204569 (RNA levels in ARN8 cells; sheet Drug HZ05vsDMSO (5 μM)): -2.424
- log2FoldChange, drug vs DMSO, gene ENSG00000221926 (RNA levels in ARN8 cells; sheet Drug HZ05vsDMSO (5 μM)): -1.667
- log2FoldChange, drug vs DMSO, gene ENSG00000276410 (RNA levels in ARN8 cells; sheet Drug HZ05vsDMSO (5 μM)): -1.7121
- DMSO control subtracted effect (cells in sub-G1) (ARN8 cells [2]; HZ05 250 nM + nutlin-3a 0 µM): 0.06
- DMSO control subtracted effect (cells in sub-G1) (ARN8 cells [2]; HZ05 250 nM + nutlin-3a 5 µM): 0.27
- DMSO control subtracted effect (cells in sub-G1) (ARN8 cells [2]; HZ05 250 nM + nutlin-3a 10 µM): 0.48
- DMSO control subtracted effect (cells in sub-G1) (ARN8 cells [2]; HZ05 250 nM + nutlin-3a 15 µM): 0.69
- DMSO control subtracted effect (cells in sub-G1) (ARN8 cells [2]; HZ05 250 nM + nutlin-3a […]): 0.61
- sub-G1 cells (ARN8 cells [2]; HZ05 400 nM (Fig. 6c)): 16.61%
- sub-G1 cells (ARN8 cells [2]; HZ05 400 nM + nutlin-3a 1 μM): 36.73%
- sub-G1 cells (ARN8 cells [2]; HZ05 400 nM + nutlin-3a 2.5 μM): 46.63%
- sub-G1 cells (ARN8 cells [2]; HZ05 400 nM + nutlin-3a 5 μM): 54.06%
- DMSO control subtracted effect (cells in sub-G1) (ARN8 cells [2]; HZ05 500 nM + nutlin-3a 0 µM): 0.08
- DMSO control subtracted effect (cells in sub-G1) (ARN8 cells [2]; HZ05 500 nM + nutlin-3a 5 µM): 0.35
- DMSO control subtracted effect (cells in sub-G1) (ARN8 cells [2]; HZ05 500 nM + nutlin-3a 10 µM): 0.60
- DMSO control subtracted effect (cells in sub-G1) (ARN8 cells [2]; HZ05 500 nM + nutlin-3a 15 µM): 0.67
- DMSO control subtracted effect (cells in sub-G1) (ARN8 cells [2]; HZ05 500 nM + nutlin-3a […]): 0.58
- sub-G1 cells (ARN8 cells [2]; HZ05 1 μM (Fig. 6b)): 31.06%
- DMSO control subtracted effect (cells in sub-G1) (ARN8 cells [2]; HZ05 1000 nM + nutlin-3a 10 µM): 0.56
- DMSO control subtracted effect (cells in sub-G1) (ARN8 cells [2]; HZ05 1000 nM + nutlin-3a 15 µM): 0.71
- DMSO control subtracted effect (cells in sub-G1) (ARN8 cells [2]; HZ05 1000 nM + nutlin-3a […]): 0.62
- sub-G1 cells (ARN8 cells [2]; HZ05 2.5 μM (Fig. 6b)): 35.04%
- DMSO control subtracted effect (cells in sub-G1) (ARN8 cells [2]; HZ05 […] + nutlin-3a 0 µM): 0.03
- DMSO control subtracted effect (cells in sub-G1) (ARN8 cells [2]; HZ05 […] + nutlin-3a 5 µM): 0.19
- DMSO control subtracted effect (cells in sub-G1) (ARN8 cells [2]; HZ05 […] + nutlin-3a 10 µM): 0.39
- DMSO control subtracted effect (cells in sub-G1) (ARN8 cells [2]; HZ05 […] + nutlin-3a 15 µM): 0.63
- synergy with nutlin-3a (cell kill) (ARN8 cells [2]; ARN8 in vitro, 72 h): strong synergistic cell kill
- effect of serum albumin concentration on activity (ARN8 cells [3]; ARN8, 72 h, increasing BSA): affected to a lesser degree than brequinar
- effect on cell growth and p53 activation in presence of excess uridine (ARN8 cells [3]; ARN8): prevented by addition of excess uridine
- concentration reducing cell viability or growth (ARN8 cells [3]; cultured cells, authors' response in peer review file): ~160 nM
- concentration activating p53-dependent transcription [5]: below 40 nM
